From US20170349532A1, “CATIONIC LIPID” (Kyowa Hakko Kirin Co., Ltd., priority 2011, published 2017)

Legend:
[1] = test system: CKAP5 mRNA in MIA PaCa-2 subcutaneous tumor; test: Test Example 3: in vivo mRNA knockdown evaluation in MIA PaCa-2 xenograft; parameters: species or system SCID mouse; details: Example 122 preparation with CKAP5 siRNA; 48 hours after intravenous administration, 10 mg/kg siRNA, MIAPaCa-2 xenograft mouse
Experimental: The preparations obtained in Example 122 and 123 are subjected to an in vivo mRNA knockdown evaluation test in the following manner.
MIA PaCa-2 that is a cell line derived from human pancreas cancer is received from the JCRB Cell Bank and cultivated with high glucose-containing DMEM (manufactured by GIBCO, 11995-073) containing a 10% inactivated fetal calf serum (manufactured by GIBCO) and 1 vol % penicillin-streptomycin (manufactured by GIBCO, 26253-84) under conditions at 37° C. and 5% CO2. […] Before the administration and 48 hours after the administration, the weight of the mouse is measured. […]
With respect to the obtained tumor sample, 1 mL of a Trizol reagent (manufactured by Invitrogen, 15596-018) and zirconia beads of 5 mm are added to a 2-mL round bottom tube containing the sample charged therein, and the contents are pulverized by Tissue lyser II (manufactured by QIAGEN) under conditions of 1/25 freq, 1.5 minutes×2 times. […] A concentration of the extracted RNA is measured by a trace absorption photometer Dropsense96 (Trinean), and RNA corresponding to from 200 to 1,000 ng is subjected to reverse transfer with a Transcriptor (manufactured by Roche, 4897030). […] An mRNA amount of the specimen is calculated as a relative proportion when the mRNA amount of CKAP5 mRNA was defined as 1. […]

[2] = Average particle diameter of preparation (Zetasizer Nano ZS); assay type: physicochemical; details: average particle diameter of cationic lipid/nucleic acid complex; Example 118 preparation: compound/PEG-DMPE Na/DSPC/cholesterol with apo-b siRNA
In short: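 Lipid nanoparticles formed by mixing cationic lipid/PEG-DMPE Na/DSPC/cholesterol (8.947/1.059/5.708/13.697 mmol/L in 90% ethanol, 37 °C) with apo-b siRNA in Tris-EDTA/citrate buffer pH 5.0, then diluted with citrate/NaCl pH 6.0 and DPBS to 10 μM siRNA. Mean complex diameter measured by dynamic light scattering.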

## CCCCC/C=C\C/C=C\CCCCCCCC(=O)OC[C@@H]1CN(C)C[C@H]1COC(=O)CCCCCCC/C=C\C/C=C\CCCCC (relative stereo) [Compound 110, trans-1-Methyl-3,4-bis(((9Z,12Z)-octadec-9,12-dienoyloxy)methyl)pyrrolidine]
[1]
  amount of CKAP mRNA in tumor, relative proportion: 0.28
  in vivo mRNA knockdown rate: 72%
[2]
  Particle diameter of Preparetion: 131.6 nm
